These results are taken from US8614194B1, “Anionic cell penetrating peptide and its use for intracellular delivery” (Kaohsiung Medical University, priority 2012, dated 2013).

No end group written: not given here.

Common to all, as to type: cell-based, human
One assay concerns hADSCs. Put plainly: Fluorescence microscopy of translocation into cells. As to conditions: FITC-labeled, 10 μM, 30 minutes, 37° C., FIG. 5. On the procedure: (§1) Cells are treated with 10 μM test compound for 30 minutes at 37° C., washed using PBS, and then treated with 0.5% trypsin. Cells are labeled with 5 μg/ml Hoechst 33342 (Invitrogen) and PKH26-GL (Sigma) respectively for nuclei and membrane labeling. Standard protocols are followed according to the kit instructions. Cells are lastly suspended again in PBS for fluorescence images. Fluorescence images are captured by Olympus, CellR and Olympus FV1000 confocal microscope using glass-bottom culture slides with excitation by 488 nm (FITC-labeled peptide) laser line.

For assay [1], the system named is HeLa cells. Put plainly: Endocytosis inhibition analysis (uptake with inhibitors). As to conditions: 10 μM, 37° C., 30 minutes, inhibitors NaN3 and 2DG, EIPA, NaClO3, FIG. 8(A). Here is the method:
For inhibition of endocytosis, HeLa cells are treated with 200 mM sodium azide (NaN3; Sigma) and 2-deoxy-D-glucose (2DG; Sigma) for 1 hour to deplete intracellular ATP pools and influence cell metabolism. hADSCs are treated with 10 mM NaN3 and 2DG for 1 h with the same purpose. For inhibition of macropinosome formation, HeLa cells and hADSCs are treated with 3 mM 5-(N-ethyl-N-isopropyl) amiloride (EIPA, Sigma) for 10 minutes. For inhibition of proteoglycan sulfation, HeLa cells and hADSCs are treated with 600 mM sodium chlorate (NaClO3, Sigma) for 2 days. After this treatment of inhibitors, cells are treated with 10 μM test compound (200 μl), and then incubated at 37° C. for 30 minutes. 10^4 cells in 0.1 ml medium are seeded into each well of a 24-well plate, and then trypsin (200 μl) is added into each well. Cells are transferred to a microtube and incubated for 5 minutes. Cells are processed for flow cytometry as described above after being added with 200 μl of medium and washed with PBS.

Assay [2] concerns HeLa cells. Put plainly: Fluorescence microscopy of translocation into cells. As to conditions: FITC-labeled, 10 μM, 30 minutes, 37° C., FIG. 4. On the procedure:
as §1

“KDDDDDD [KD6, one lysine residue linked to the N terminal of six aspartate residues]”: the translocation into cells result in the assay with hADSCs is “crosses into ADSCs”.

Take “AAAADD [A4D2, four alanine residues linked to the N terminal of two aspartate residues]”: the translocation into cells entry in the assay on hADSCs is reported as “crosses into ADSCs”.

As to “DDDDDD [D6, peptide of six aspartate residues]”, the translocation into cells entry in the assay on hADSCs is listed as “crosses into ADSCs”.

In the case of “AADDDD [A2D4, two alanine residues linked to the N terminal of four aspartate residues]”, in the assay on hADSCs, the translocation into cells entry was “crosses into ADSCs”.

In the case of 6-aminocaproic acid-R7 [ACP-R7], the “route of internalization, uptake combined with inhibitors” value in the assay on HeLa cells [1] is “internalized by macropinocytosis, endocytosis, and direct translocation resulted from proteoglycan sulfation”. In addition, the translocation into cells result with hADSCs is listed as “crosses into ADSCs”; with HeLa cells [2], “crosses into HeLa cells”.

In the case of “KD6K-simvastatin: peptide KDDDDDDK carrying simvastatin and PEG500; Lys capped by acetic anhydride or FITC (also: carries simvastatin and PEG500, Lys capped by acetyl or FITC)”, the translocation into cells result with hADSCs is listed as “crosses into ADSCs”.
